Reference: ChEMBL document CHEMBL1201862, “PubChem BioAssay data set” (2004)
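Compound exposure: 48 hours, 5 concentrations, 96-well plates. GI50 = concentration required for 50% inhibition of growth.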 Active and inactive are the calls of the source. No stated cut-off is given here; in the data, active = GI50 up to about 1.1 µM and inactive = higher. Bridge positions count the residues as written; N and C are the ends. Where a SMILES comes first, the peptide text is derived from it. Square brackets hold non-standard residues; d marks the D form. Peptide text beside a SMILES is read from it. I, II: the chains in the order shown. The star is where a group is joined. * marks the point of attachment. Quinoxaline2carbonyl = O=C(c1cnc2ccccc2n1)*; NMeV = CN[CH](C(=O)O)C(C)C; NMeC = CN[CH](CS)C(=O)O; Boc = CC(C)(C)OC(=O)*; nBu = CCCC*

Key:
Test in all cases: DTP human tumour cell line panel, 48 h
[1] = tested on: SK-MEL-28
[2] = tested on: SNB-75
[3] = tested on: LOX IMVI
[4] = tested on: SW-620
[5] = tested on: OVCAR-4
[6] = tested on: SF-295
[7] = tested on: RXF 393
[8] = tested on: A549
[9] = tested on: T47D
[10] = tested on: NCI-H226
[11] = tested on: COLO 205
[12] = tested on: Hs-578T
[13] = tested on: SF-539
[14] = tested on: UACC-62
[15] = tested on: HT-29
[16] = tested on: KM12
[17] = tested on: MOLT-4
[18] = tested on: A498
[19] = tested on: TK-10
[20] = tested on: HOP-92

SMILES: CCCCOc1ccc(CC(NC(=O)OC(C)(C)C)C(=O)NC(C)C(=O)NC(Cc2ccccc2)C(=O)NCC(N)=O)cc1 (stereo not given) (Boc-Y(nBu)AFG-NH2; configuration not given here)
- GI50 [1]: 91 µM (inactive)
- GI50 [2]: > 100 µM (inactive)
- GI50 [3]: 65 µM (inactive)
- GI50 [4]: > 100 µM (inactive)
- GI50 [5]: > 100 µM (inactive)
- GI50 [6]: > 100 µM (inactive)
- GI50 [7]: > 100 µM (inactive)
- GI50 [8]: > 100 µM (inactive)
- GI50 [9]: > 100 µM (inactive)
- GI50 [10]: > 100 µM (inactive)
- GI50 [11]: > 100 µM (inactive)
- GI50 [12]: > 100 µM (inactive)
- GI50 [13]: > 100 µM (inactive)
- GI50 [14]: > 100 µM (inactive)
- GI50 [15]: > 100 µM (inactive)
- GI50 [16]: > 100 µM (inactive)
- GI50 [17]: 23 µM (inactive)
- GI50 [18]: > 100 µM (inactive)
- GI50 [19]: > 100 µM (inactive)
- GI50 [20]: 61.4 µM (inactive)

SMILES: CC1NC(=O)C(NC(=O)c2cnc3ccccc3n2)COC(=O)C(C(C)C)N(C)C(=O)C2CSSCC(C(=O)N(C)C(C(C)C)C(=O)OCC(NC(=O)c3cnc4ccccc4n3)C(=O)NC(C)C(=O)N2C)N(C)C1=O (stereo not given) (I: Quinoxaline2carbonyl-SA[NMeC][NMeV] / II: Quinoxaline2carbonyl-SA[NMeC][NMeV]; ester I:1-II:C, I:C-II:1; disulfide I:3-II:3; configuration not given here)
- GI50 [1]: < 0.01 µM (active)
- GI50 [2]: < 0.01 µM (active)
- GI50 [3]: < 0.01 µM (active)
- GI50 [4]: < 0.01 µM (active)
- GI50 [5]: < 0.01 µM (active)
- GI50 [6]: < 0.01 µM (active)
- GI50 [7]: < 0.01 µM (active)
- GI50 [8]: < 0.01 µM (active)
- GI50 [9]: < 0.01 µM (active)
- GI50 [10]: < 0.01 µM (active)
- GI50 [11]: < 0.01 µM (active)
- GI50 [12]: < 0.01 µM (active)
- GI50 [13]: < 0.01 µM (active)
- GI50 [14]: < 0.01 µM (active)
- GI50 [15]: < 0.01 µM (active)
- GI50 [16]: < 0.01 µM (active)
- GI50 [17]: < 0.01 µM (active)
- GI50 [18]: < 0.01 µM (active)
- GI50 [19]: < 0.01 µM (active)
- GI50 [20]: < 0.01 µM (active)

SMILES: COc1ccc(C(=O)Oc2c(C#N)sc3c2c(=O)n(-c2ccccc2)c(=S)n3-c2ccccc2)cc1
- GI50 [1]: 53.6 µM (inactive)
- GI50 [2]: > 100 µM (inactive)
- GI50 [3]: 19.5 µM (inactive)
- GI50 [4]: 32.7 µM (inactive)
- GI50 [5]: 28.1 µM (inactive)
- GI50 [6]: 35.7 µM (inactive)
- GI50 [7]: 21.8 µM (inactive)
- GI50 [8]: 30.1 µM (inactive)
- GI50 [9]: 33.6 µM (inactive)
- GI50 [10]: 24.2 µM (inactive)
- GI50 [11]: 25.8 µM (inactive)
- GI50 [12]: 25.9 µM (inactive)
- GI50 [13]: 21.6 µM (inactive)
- GI50 [14]: 5.66 µM (inactive)
- GI50 [15]: 22.2 µM (inactive)
- GI50 [16]: 18.5 µM (inactive)
- GI50 [17]: 21 µM (inactive)
- GI50 [18]: 16.4 µM (inactive)
- GI50 [19]: 28 µM (inactive)
- GI50 [20]: 23.6 µM (inactive)

SMILES: COC1C(O)C(C)OC(O[C@@H]2C[C@H]3CC[C@@H]4[C@H](CC[C@]5(C)[C@@H](C6=CC(=O)OC6)CC[C@]45O)[C@@]3(C)[C@H](O)C2)C1O (stereo not given in full)
- GI50 [1]: 0.216 µM (active)
- GI50 [2]: 0.126 µM (active)
- GI50 [3]: < 0.0362 µM (active)
- GI50 [4]: 0.0782 µM (active)
- GI50 [5]: 0.057 µM (active)
- GI50 [6]: < 0.0371 µM (active)
- GI50 [7]: < 0.0161 µM (active)
- GI50 [8]: < 0.0221 µM (active)
- GI50 [9]: 0.111 µM (active)
- GI50 [10]: 0.151 µM (active)
- GI50 [11]: 0.191 µM (active)
- GI50 [12]: 0.182 µM (active)
- GI50 [13]: < 0.01 µM (active)
- GI50 [14]: 0.142 µM (active)
- GI50 [15]: 0.0849 µM (active)
- GI50 [16]: 0.296 µM (active)
- GI50 [17]: < 0.0162 µM (active)
- GI50 [18]: 0.0525 µM (active)
- GI50 [19]: 0.0361 µM (active)
- GI50 [20]: 0.106 µM (active)

SMILES: O=c1[nH]nc(Cc2ccccc2)n1/N=C/c1ccc([N+](=O)[O-])cc1
- GI50 [1]: > 100 µM (inactive)
- GI50 [2]: 42 µM (inactive)
- GI50 [3]: > 100 µM (inactive)
- GI50 [4]: > 100 µM (inactive)
- GI50 [5]: > 100 µM (inactive)
- GI50 [6]: > 100 µM (inactive)
- GI50 [7]: > 100 µM (inactive)
- GI50 [8]: > 100 µM (inactive)
- GI50 [9]: > 100 µM (inactive)
- GI50 [10]: > 100 µM (inactive)
- GI50 [11]: > 100 µM (inactive)
- GI50 [12]: > 100 µM (inactive)
- GI50 [13]: > 100 µM (inactive)
- GI50 [14]: > 100 µM (inactive)
- GI50 [15]: > 100 µM (inactive)
- GI50 [16]: > 100 µM (inactive)
- GI50 [17]: > 100 µM (inactive)
- GI50 [18]: > 100 µM (inactive)
- GI50 [19]: > 100 µM (inactive)
- GI50 [20]: > 100 µM (inactive)

SMILES: CC(C)(C)OC(=O)N1CCCC1C(=O)NC(c1ccccc1)c1ccccc1 (stereo not given)
- GI50 [1]: > 100 µM (inactive)
- GI50 [2]: > 100 µM (inactive)
- GI50 [3]: > 100 µM (inactive)
- GI50 [4]: > 100 µM (inactive)
- GI50 [5]: > 100 µM (inactive)
- GI50 [6]: > 100 µM (inactive)
- GI50 [7]: > 100 µM (inactive)
- GI50 [8]: > 100 µM (inactive)
- GI50 [9]: > 100 µM (inactive)
- GI50 [10]: > 100 µM (inactive)
- GI50 [11]: > 100 µM (inactive)
- GI50 [12]: > 100 µM (inactive)
- GI50 [13]: > 100 µM (inactive)
- GI50 [14]: > 100 µM (inactive)
- GI50 [15]: > 100 µM (inactive)
- GI50 [16]: > 100 µM (inactive)
- GI50 [17]: > 100 µM (inactive)
- GI50 [18]: > 100 µM (inactive)
- GI50 [19]: > 100 µM (inactive)
- GI50 [20]: > 100 µM (inactive)

SMILES: CC(=O)/C(=C/N1CCNC1=S)C(=O)Nc1ccccc1C
- GI50 [1]: > 100 µM (inactive)
- GI50 [2]: > 100 µM (inactive)
- GI50 [3]: > 100 µM (inactive)
- GI50 [4]: > 100 µM (inactive)
- GI50 [5]: > 100 µM (inactive)
- GI50 [6]: > 100 µM (inactive)
- GI50 [7]: > 100 µM (inactive)
- GI50 [8]: > 100 µM (inactive)
- GI50 [9]: > 100 µM (inactive)
- GI50 [10]: > 100 µM (inactive)
- GI50 [11]: > 100 µM (inactive)
- GI50 [12]: > 100 µM (inactive)
- GI50 [13]: > 100 µM (inactive)
- GI50 [14]: > 100 µM (inactive)
- GI50 [15]: > 100 µM (inactive)
- GI50 [16]: > 100 µM (inactive)
- GI50 [17]: > 100 µM (inactive)
- GI50 [18]: > 100 µM (inactive)
- GI50 [19]: > 100 µM (inactive)
- GI50 [20]: > 100 µM (inactive)
